Laboratory results as given in patent publication US20210283073A1, “AGENT FOR INHIBITING RECURRENCE OF HEM[…] PATIENTS WHO HAVE UNDERGONE HEMATOPOIETIC STEM CELL TRANSPLANTATION” (Priothera Limited, priority 2018, published 2021).
Read-outs that look alike come from different tables or passages of the source.

Test system: patients who have undergone hematopoietic stem cell transplantation for the treatment of hematological malignancies
Conditions: for number of days of recurrence of hematological malignancies / number of days of death: days from allogeneic HSCT; for Recurrence rate / Survival rate: one year after allogeneic HSCT
Experimental: The clinical tests were performed as described below
The following four types of immunosuppressants were used in the clinical tests. • 2-Amino-2-[4-(3-benzyloxyphenylthio)-2-chlorophenyl] ethyl-propane-1,3-diol hydrochloride (prepared as capsules containing 0.5, 1, 2, 3, 4, or 5 mg in terms of 2-amino-2-[4-(3-benzyloxyphenylthio)-2-chlorophenyl] ethyl-propane-1,3-diol)) • Methotrexate • Cyclosporin A • Tacrolimus
23 patients participated in the clinical tests.
The clinical tests was carried out according to the following schedule. However, changes were made appropriately depending on the condition of the patient and the like.
A: Screening (from the −50th day to the −2nd day), Baseline (the −1st day)
B: Treatment with 2-amino-2-[4-(3-benzyloxyphenylthio)-2-chlorophenyl] ethyl-propane-1,3-diol hydrochloride (from the 1st day to the 111th day)
B′: Treatment with other immunosuppressants (according to hospital standards, and the like)
C: Conditioning regimen (from the 2nd day to the 10th day)
D: Allogeneic hematopoietic stem cell transplantation (the 11th day)
E: Follow-up (from the 12th day to the 376th day), additional follow-up (from the 377th day)
A predetermined amount of 2-amino-2-[4-(3-benzyloxyphenylthio)-2-chlorophenyl] ethyl-propane-1,3-diol hydrochloride was administered to the patients once a day, as well as, other immunosuppressants were administered to the patients on a dosing schedule and dosage according to the hospital standards and the like. The daily dosage of 2-amino-2-[4-(3-benzyloxyphenylthio)-2-chlorophenyl] ethyl-propane-1,3-diol hydrochloride administered to each patient (value in terms of 2-amino-2-[4-(3-benzyloxyphenylthio)-2-chlorophenyl] ethyl-propane-1,3-diol, the same is applied to the descriptions hereinafter), the administration period of time, and the types of the other immunosuppressants are shown in Table 2 (KRP: 2-amino-2-[4-(3-benzyloxyphenylthio)-2-chlorophenyl] ethyl-propane-1,3-diol hydrochloride, MTX: methotrexate, CyA: cyclosporin A, and Tac: tacrolimus).
The conditions of patients who underwent allogeneic hematopoietic stem cell transplantation were subjected to following up for a certain period of time. In the table, the follow-up period, the number of days of recurrence of hematological malignancies and the number of days of death represent the number of days passing from the day when allogeneic hematopoietic stem cell transplantation was performed. The survival rate and recurrence rate were calculated in accordance with the Kaplan-Meier method.

[1] = Patient No. 1, Multiple myeloma, KRP 3 mg + MTX + CyA, KRP 34 days, follow-up 749 days
[2] = Patient No. 2, Acute lymphocytic leukemia, KRP 3 mg + MTX + CyA, KRP 108 days, follow-up 731 days
[3] = Patient No. 3, Acute lymphocytic leukemia, KRP 3 mg + MTX + CyA, KRP 107 days, follow-up 734 days
[4] = Patient No. 4, Myelodysplasia syndrome, KRP 3 mg + MTX + CyA, KRP 35 days, follow-up 532 days
[5] = Patient No. 4, Myelodysplasia syndrome, KRP 3 mg + MTX + CyA, KRP 35 days
[6] = Patient No. 5, B-cell lymphoma, KRP 3 mg + MTX + CyA, KRP 111 days, follow-up 819 days
[7] = Patient No. 6, Acute myeloid leukemia, KRP 3 mg + MTX + CyA, KRP 107 days, follow-up 347 days
[8] = Patient No. 7, Acute lymphocytic leukemia, KRP 3 mg + MTX + CyA, KRP 98 days, follow-up 727 days
[9] = Patient No. 8, Myelodysplasia syndrome, KRP 3 mg + MTX + CyA, KRP 111 days, follow-up 704 days
[10] = Patient No. 9, Acute myeloid leukemia, KRP 3 mg + MTX + CyA, KRP 86 days, follow-up 728 days
[11] = Patient No. 10, Acute myeloid leukemia, KRP 3 mg + MTX + CyA, KRP 111 days, follow-up 876 days
[12] = Patient No. 10, Acute myeloid leukemia, KRP 3 mg + MTX + CyA, KRP 111 days
[13] = Patient No. 11, Chronic myeloid leukemia, KRP 1 mg + MTX + CyA, KRP 111 days, follow-up 617 days
[14] = Patient No. 12, Myelodysplasia syndrome, KRP 3 mg + MTX + Tac, KRP 79 days, follow-up 110 days
[15] = Patient No. 12, Myelodysplasia syndrome, KRP 3 mg + MTX + Tac, KRP 79 days
[16] = Patient No. 13, Acute lymphocytic leukemia, KRP 1 mg + MTX + CyA, KRP 43 days, follow-up 326 days
[17] = Patient No. 13, Acute lymphocytic leukemia, KRP 1 mg + MTX + CyA, KRP 43 days
[18] = Patient No. 14, Acute myeloid leukemia, KRP 1 mg + MTX + CyA, KRP 111 days, follow-up 669 days
[19] = Patient No. 15, Chronic myeloid leukemia, KRP 3 mg + MTX + Tac, KRP 111 days, follow-up 554 days
[20] = Patient No. 16, Acute myeloid leukemia, KRP 3 mg + MTX + Tac, KRP 117 days, follow-up 375 days
[21] = Patient No. 17, Acute myeloid leukemia, KRP 3 mg + MTX + Tac, KRP 111 days, follow-up 246 days
[22] = Patient No. 18, Myelofibrosis, KRP 3 mg + MTX + Tac, KRP 111 days, follow-up 310 days
[23] = Patient No. 18, Myelofibrosis, KRP 3 mg + MTX + Tac, KRP 111 days
[24] = Patient No. 19, Acute myeloid leukemia, KRP 1 mg + MTX + CyA, KRP 24 days, follow-up 99 days
[25] = Patient No. 20, Chronic myeloid leukemia, KRP 1 mg + MTX + CyA, KRP 111 days, follow-up 193 days
[26] = Patient No. 21, Non-hodgkin lymphoma/Hodgkin disease, KRP 3 mg + MTX + Tac, KRP 62 days, follow-up 79 days
[27] = Patient No. 21, Non-hodgkin lymphoma/Hodgkin disease, KRP 3 mg + MTX + Tac, KRP 62 days
[28] = Patient No. 22, Non-hodgkin lymphoma/Hodgkin disease, KRP 3 mg + MTX + Tac, KRP 107 days, follow-up 264 days
[29] = Patient No. 22, Non-hodgkin lymphoma/Hodgkin disease, KRP 3 mg + MTX + Tac, KRP 107 days
[30] = Patient No. 23, Chronic myeloid leukemia, KRP 1 mg + MTX + CyA, KRP 111 days, follow-up 264 days
[31] = all 23 patients, KRP 1 or 3 mg/day + MTX + CyA or Tac, Kaplan-Meier
[32] = Chronic myeloid leukemia, 4 patients
[33] = KRP 1 mg + MTX + CyA, 6 patients
[34] = KRP 3 mg + MTX + CyA, 10 patients, hydrochloride
[35] = KRP 3 mg + MTX + CyA, 10 patients, listed as 2-amino-2-[4-(3-benzyloxyphenylthio)-2-chlorophenyl] ethyl-propane-1,3-diol, hydrochloride
[36] = KRP 3 mg + MTX + Tac, 7 patients
[37] = Myelodysplasia syndrome, 3 patients
[38] = Non-hodgkin lymphoma/Hodgkin disease, 2 patients
[39] = administration period 80 days or more, 17 patients, hydrochloride
[40] = administration period 80 days or more, 17 patients, listed as 2-amino-2-[4-(3-benzyloxyphenylthio)-2-chlorophenyl] ethyl-propane-1,3-diol, hydrochloride
[41] = administration period 100 days or more, 15 patients, hydrochloride
[42] = administration period 100 days or more, 15 patients, listed as 2-amino-2-[4-(3-benzyloxyphenylthio)-2-chlorophenyl] ethyl-propane-1,3-diol, hydrochloride

Cl.NC(CO)(CO)CCc1ccc(Sc2cccc(OCc3ccccc3)c2)cc1Cl [KRP, 2-amino-2-[4-(3-benzyloxyphenylthio)-2-chlorophenyl] ethyl-propane-1,3-diol hydrochloride]
Alive/dead [1]: Alive | Yes/No of recurrence of hematological malignancy [1]: Yes | number of days of recurrence of hematological malignancies (Patient No. 1, Multiple myeloma, KRP 3 mg + MTX + CyA, KRP 34 days): (749th day) | Alive/dead [2]: Alive | Yes/No of recurrence of hematological malignancy [2]: No | Alive/dead [3]: Alive | Yes/No of recurrence of hematological malignancy [3]: No | Alive/dead [4]: Dead | Yes/No of recurrence of hematological malignancy [4]: Yes | number of days of death [5]: (532nd day) | number of days of recurrence of hematological malignancies [5]: (287th day) | Alive/dead [6]: Alive | Yes/No of recurrence of hematological malignancy [6]: No | Alive/dead [7]: Alive | Yes/No of recurrence of hematological malignancy [7]: No | Alive/dead [8]: Alive | Yes/No of recurrence of hematological malignancy [8]: No | Alive/dead [9]: Alive | Yes/No of recurrence of hematological malignancy [9]: No | Alive/dead [10]: Alive | Yes/No of recurrence of hematological malignancy [10]: Yes | number of days of recurrence of hematological malignancies (Patient No. 9, Acute myeloid leukemia, KRP 3 mg + MTX + CyA, KRP 86 days): (102nd day) | Alive/dead [11]: Dead | Yes/No of recurrence of hematological malignancy [11]: Yes | number of days of death [12]: (876th day) | number of days of recurrence of hematological malignancies [12]: (757th day) | Alive/dead [13]: Alive | Yes/No of recurrence of hematological malignancy [13]: No | Alive/dead [14]: Dead | Yes/No of recurrence of hematological malignancy [14]: Yes | number of days of death [15]: (110th day) | number of days of recurrence of hematological malignancies [15]: (110th day) | Alive/dead [16]: Dead | Yes/No of recurrence of hematological malignancy [16]: Yes | number of days of death [17]: (326th day) | number of days of recurrence of hematological malignancies [17]: (252nd day) | Alive/dead [18]: Alive | Yes/No of recurrence of hematological malignancy [18]: No | Alive/dead [19]: Alive | Yes/No of recurrence of hematological malignancy [19]: No | Alive/dead [20]: Alive | Yes/No of recurrence of hematological malignancy [20]: No | Alive/dead [21]: Alive | Yes/No of recurrence of hematological malignancy [21]: Yes | number of days of recurrence of hematological malignancies (Patient No. 17, Acute myeloid leukemia, KRP 3 mg + MTX + Tac, KRP 111 days): (98th day) | Alive/dead [22]: Dead | Yes/No of recurrence of hematological malignancy [22]: Yes | number of days of death [23]: (310th day | number of days of recurrence of hematological malignancies [23]: (105th day) | Alive/dead [24]: Alive | Yes/No of recurrence of hematological malignancy [24]: Yes | number of days of recurrence of hematological malignancies (Patient No. 19, Acute myeloid leukemia, KRP 1 mg + MTX + CyA, KRP 24 days): (77th day) | Alive/dead [25]: Alive | Yes/No of recurrence of hematological malignancy [25]: No | Alive/dead [26]: Dead | Yes/No of recurrence of hematological malignancy [26]: Yes | number of days of death [27]: (79th day | number of days of recurrence of hematological malignancies [27]: (49th day) | Alive/dead [28]: Dead | Yes/No of recurrence of hematological malignancy [28]: Yes | number of days of death [29]: (264th day | number of days of recurrence of hematological malignancies [29]: (121st day) | Alive/dead [30]: Alive | Yes/No of recurrence of hematological malignancy [30]: No | recurrence rate of hematologic malignancy one year after allogeneic hematopoietic stem cell transplantation [31]: 40% | survival rate of the patients one year after allogeneic hematopoietic stem cell transplantation [31]: 75% | Recurrence rate (Acute lymphocytic leukemia, 4 patients): 25% | Survival rate (Acute lymphocytic leukemia, 4 patients, hydrochloride): 75% | Survival rate (Acute lymphocytic leukemia, 4 patients, listed as 2-amino-2-[4-(3-benzyloxyphenylthio)-2-chlorophenyl] ethyl-propane-1,3-diol, hydrochloride): 75% | Recurrence rate (Acute myeloid leukemia, 7 patients): 43% | Survival rate (Acute myeloid leukemia, 7 patients, hydrochloride): 100% | Survival rate (Acute myeloid leukemia, 7 patients, listed as 2-amino-2-[4-(3-benzyloxyphenylthio)-2-chlorophenyl] ethyl-propane-1,3-diol, hydrochloride): 100% | Recurrence rate (B-cell lymphoma, 1 patient): 0% | Survival rate (B-cell lymphoma, 1 patient): 100% | Recurrence rate [32]: 0% | Survival rate [32]: 100% | Recurrence rate [33]: 38% | Survival rate [33]: 67% | Recurrence rate [34]: 20% | Survival rate [34]: 100% | Recurrence rate [35]: 20% | Survival rate [35]: 100% | Recurrence rate [36]: 71% | Survival rate [36]: 36% | Recurrence rate (Multiple myeloma, 1 patient): 0% | Survival rate (Multiple myeloma, 1 patient): 100% | Recurrence rate [37]: 67% | Survival rate [37]: 67% | Recurrence rate (Myelofibrosis, 1 patient): 100% | Survival rate (Myelofibrosis, 1 patient): 0% | Recurrence rate [38]: 100% | Survival rate [38]: 0% | Recurrence rate (administration period 60 days or more, 19 patients): 32% | Survival rate (administration period 60 days or more, 19 patients, hydrochloride): 77% | Survival rate (administration period 60 days or more, 19 patients, listed as 2-amino-2-[4-(3-benzyloxyphenylthio)-2-chlorophenyl] ethyl-propane-1,3-diol, hydrochloride): 77% | Recurrence rate [39]: 24% | Survival rate [39]: 86% | Recurrence rate [40]: 24% | Survival rate [40]: 86% | Recurrence rate [41]: 20% | Survival rate [41]: 84% | Recurrence rate [42]: 20% | Survival rate [42]: 84%
